From patent EP4772508A1, “MACROCYCLIC COMPOUND AND USE THEREOF” (Jiangsu Hengrui Pharmaceuticals Co., Ltd., priority 2023, dated 2025) come the findings set out here.

Where two headings read alike, the source gives them in different places. Marks after values point to notes of the source that are not given here.

A short description of data set [1]: Metal transfer stability test in the presence of zinc ions. The format is physicochemical. Particulars: equal volumes 2.5 mM contrast agent and 2.5 mM ZnCl2, phosphate buffer, 37°C, 0.5 T. Here is the method:
Test example 4: Metal transfer stability test of compounds in the presence of zinc ions • 1 . Experimental protocol • 2. […] Experiment instruments: VTMR20-010V-I Nuclear Magnetic Resonance Cross-Linking Density Imaging Analyser • 4. Experimental method
A 2.5 mM solution of contrast agent solutions and a 2.5 mM solution of zinc chloride were respectively prepared in phosphate buffer (0.026 mol/L KH2PO4 and 0.041 mol/L Na2HPO4). An equal volume of a 2.5 mM ZnCl2 solution was added to the a 2.5 mM gadolinium contrast agent solution, and the mixture was mixed by shaking. This moment of complete mixing was designated as time zero (t = 0). Immediately thereafter, a 0.5 mL aliquot was withdrawn and subjected to measurement of the longitudinal relaxation time, T1(0), at 37°C and a magnetic field strength of 0.5 T. The mixed solution was then incubated at 37°C. 0.5 mL of the solution was taken at time points of 5 min, 180 min, 1440 min and 5760 min, respectively, to determine T1(t) at different time points. The ratio of the relaxivity at different time points to the initial relaxivity at time 0, namely R1(t)/R1(0), was calculated.

A short description of data set [2]: Relaxivity of the compound in water. It counts as physicochemical. Particulars: deionized water. On the procedure:
Test example 1: Relaxivity of the compound in water
Niumag (Suzhou) Nuclear Magnetic Resonance Contrast Agent Relaxivity Analyser with a 0.5 T magnetic field
Bruker Small Animal Magnetic Resonance Imaging System (BioSpec 70/20 USR) with a 7 T magnetic field
1 mL of the test sample was placed in a 1.5 mL EP (eppendorf) tube, and the longitudinal relaxation time T1 and transverse relaxation time T2 under different magnetic field conditions were measured separately using the Niumag (Suzhou) Nuclear Magnetic Resonance Contrast Agent Relaxivity Analyser with a 0.5 T magnetic field. The test sample was loaded into a 0.2 mL sample tube until full, and the longitudinal relaxation time T1 and transverse relaxation time T2 under different magnetic field conditions were measured separately using the Bruker Small Animal Magnetic Resonance Imaging System (BioSpec 70/20 USR) with a 7 T magnetic field.
(§1) Based on the relaxation times T1 and T2 of samples at different concentrations, the relaxivities r1 and r2 were calculated respectively. The relaxivity was calculated according to the following equation: r = (1)/(ΔT)/C, [formula] r: relaxivity; T: relaxation time (s); C: contrast agent concentration (mM).

A further data set has as its system canine plasma proteins. As to conditions: dog, 1000 µM. Here is the method: After the preparation of plasma samples, 0.5 mL of plasma samples were transferred into ultracentrifugation tubes, with 3 replicates per concentration. After incubation in a CO2 incubator at 37°C for 0.5 h, the samples were subjected to ultracentrifugation at 627,000 g for 3 hours at 37°C. After centrifugation, 100 µL of samples were taken from the central layer of the ultracentrifugation tubes and mixed with 100 µL of blank plasma. The samples were stored at -70°C for subsequent determination.
The plasma protein binding rates of analytes at different concentration levels were calculated using the following formulas: [formula] Binding rate% = 100%−Free rate%. [formula]

A short description of data set [3]: Relaxivity of compounds in human plasma. The format is physicochemical. As to conditions: human plasma containing sodium heparin, 0.5 T. Here is the method:
as §1

[4] abbreviates: hydrochloric acid pH 1.2, 37°C, 8 × 10^-6 M, 0 h.
Setting [5] is: hydrochloric acid, 24 h, 8 µM, pH 1.2.
Where [6] appears, read: hydrochloric acid, 48 h, 8 µM, pH 1.2.
The mark [7] stands for this setting: hydrochloric acid, 96 h, 8 µM, pH 1.2.

Regarding Gadodiamide, the “R1(t)/R1(0)” value in data set [1] (0 min) was found to be 1; in data set [1] (5 min), 1.07; in data set [1] (180 min), 0.59; in data set [1] (1440 min), 0.59; in data set [1] (5760 min), 0.38.
On to Gadopiclenol [RC1], for which the “Relaxivity r1” value was 11.7 mM⁻¹ s⁻¹ in data set [2] (0.5 T) and 6.3 mM⁻¹ s⁻¹ in data set [2] (7 T). Besides, in the data set on canine plasma proteins, the “Average% (binding rate)” value is listed as 0* %. Moreover, the “Gd^3+ Dissociation rate (%)” value is listed as “BLQ” under setting [4], 24.7% under setting [5], 35.6% under setting [6] and 37.8% under setting [7].
With Gadobutrol, the “Relaxivity r1” value in data set [2] (0.5 T) came out at 4.4 mM⁻¹ s⁻¹; in data set [2] (7 T), 3.5 mM⁻¹ s⁻¹; in data set [3] it was 7.5 mM⁻¹ s⁻¹. Further, the “R1(t)/R1(0)” value in data set [1] (0 min) is 1; in data set [1] (5 min) it was 0.93; in data set [1] (180 min) it was 0.82; in data set [1] (1440 min), 0.96; in data set [1] (5760 min), 0.90. Also, the “Gd^3+ Dissociation rate (%)” value reads like this: under setting [4], “BLQ”; under setting [5], 73.5%; under setting [6], 70.1%; under setting [7], 64.6%.
